Tested on: mammary carcinoma MCF-7
Experiment: xeno-transplantable naked-mouse model, mammary carcinoma MCF-7 s.c.
Format: in vivo, mice (Ncr:nu/nu female)
Description: The dose refers to the amount of doxorubicin available. […] In the case of the highest dose employed in the experiment (12 mg/kg), there appears a very high lethalness (5 of 7 and 7 of 7 animals, respectively) in the therapy with doxorubicin.

COc1cccc2c1C(=O)c1c(O)c3c(c(O)c1C2=O)C[C@@](O)(C(=O)CO)C[C@@H]3O[C@H]1C[C@H](N)[C@H](O)[C@H](C)O1 [doxorubicin]
optimum TIC (%) (dose 4 mg/kg/inj. i.v. day 16 and 23): 61% | optimum TIC (%) (dose 8 mg/kg/inj. i.v. day 16 and 23): 39% | mortality (d) (dose 8 mg/kg/inj. i.v. day 16 and 23, number of deaths (day), 8 mice): 1 (26) | mortality (d) (dose 12 mg/kg/inj. i.v. day 16 and 23, number of deaths (days), 7 mice): 7 (25-33)

From patent publication US6709679B2, “Antineoplastic conjugates of transferin, albumin and polyethylene glycol” (priority 1996, dated 2004)
